Assay results reported in US20100305101A1, “Leptin genotype and ß-adrenergic agonists” (priority 2009, published 2010).
Structures can show the parent of a compound that is named as a salt.

How the values were obtained:
[1] = Feedlot trial of leptin Arg25Cys genotype x Zilpaterol Hydrochloride administration (Cactus Research); format: in vivo, cattle; settings: for daily dry matter intake (DDMI) during ZH treatment: last 24 days on feed; for % USDA stamped quality grade Choice+Prime, effect of ZH administration: vs no ZH
Description: In a trial completed at a private research facility in Texas, USA (Cactus Research, Amarillo Tex.) leptin genotype was assessed for potential interaction with Zilpaterol Hydrochloride (ZH). The trial consisted of 4,279 animals and occurred from summer of 2008 and carried through to spring of 2009. The trial was conducted as a randomized complete block design with approximately 90 animals being placed into pens based on leptin genotype and randomly assigned to drug treatment with pen being the experimental unit. Treatment structure was a 3×2 factorial including three letting genotypes (CC, CT and TT) and two drug treatments (zero control and drug treatment). Pens were blocked by time, specifically arrival date of the animal to the feedlot. Each block was slaughtered on the same day, and the complete process replicated eight times resulting in eight blocks. Below is a schematic summary of the trial design.
Upon arrival into the feedlot animals were individually weighed and back fat was measured using ultrasound. These measured were also taken 65, days on feed, and then one week prior to ZH treatment and 2-3 days prior to slaughter. All cattle were slaughtered and USDA carcass data were measured. Growth data were fitted to a non-linear growth model.
Backfat was measure by ultrasound at: • 1) Arrival • 2) 65 days on feed • 3) 1 week prior to zilpaterol initiation • 4) 2-3 days prior to slaughter 8 total blocks, 6 treatment pens per block, and 4,179 head total (avg initial wt=875 lbs) Within blocks, all treatments were killed on the same day (avg days on feed=129

[2] = RH 300 mg/steer/day, ZH 6 mg/steer/day; cited from earlier work
B-AR's = settings: swine; within the first 7 days of treatment with RH; cited from earlier work

Structure (SMILES) | hot carcass weight (HCW) gain response to ZH administration ([1]; CC and CT genotype animals) | % empty body fat (% EBF) change when fed ZH ([1]; CC genotype animals) | marbling score, effect of ZH administration ([1]; CC genotype animals) | daily dry matter intake (DDMI) during ZH treatment ([1]; CC genotype animals) | % USDA stamped quality grade Choice+Prime, effect of ZH administration ([1]; CC genotype animals) | daily dry matter intake (DDMI) during ZH treatment ([1]; CT and TT genotype animals) | marbling score, effect of ZH administration ([1]; TT and CT genotype animals) | rib eye area (REA) gain with ZH administration ([1]; TT and CT genotype animals) [square inches] | % USDA stamped quality grade Choice+Prime, effect of ZH administration ([1]; TT and CT genotype animals) | % empty body fat (% EBF) change when fed ZH ([1]; TT genotype animals) | hot carcass weight (HCW) gain response to ZH administration ([1]; TT genotype animals) | LM (Longissimus Muscle) area [2] | sheer force and toughness of the muscle tissue [2] | B-AR down-regulation in adipose tissue (B-AR's) [%]
CC(C)N[C@@H]1CCn2c(=O)[nH]c3cccc(c32)[C@H]1O (racemic) [ZH, Zilpaterol Hydrochloride] | largest response | smallest reduction | slight reduction | no change | unaffected | significant reduction | much greater reduction | 1.4 | significant reductions | largest reduction | lowest response | larger | increased | –
CC(CCc1ccc(O)cc1)NCC(O)c1ccc(O)cc1 (stereo not shown) [RH, Ractopamine Hydrochloride] | – | – | – | – | – | – | – | – | – | – | – | no effect | increased | ~50
